According to PubChem BioAssay (NCI):
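All cell lines were grown in 96-well plates and treated with compound for 48 hours. Definition used: TGI = concentration required for complete inhibition of growth.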

Key:
Experiment in all cases: NCI tumour cell line growth inhibition, 48 h
HCT-15 colon = tested on: HCT-15 colon
ACHN renal = tested on: ACHN renal
SF-539 CNS = tested on: SF-539 CNS
BT-549 breast = tested on: BT-549 breast
SF-268 CNS = tested on: SF-268 CNS
MCF7 breast = tested on: MCF7 breast
HCC-2998 colon = tested on: HCC-2998 colon
K-562 leukemia = tested on: K-562 leukemia
SK-MEL-5 melanoma = tested on: SK-MEL-5 melanoma
HCT-116 colon = tested on: HCT-116 colon
HT29 colon = tested on: HT29 colon
T-47D breast = tested on: T-47D breast
HOP-92 NSCLC = tested on: HOP-92 NSCLC
RPMI-8226 leukemia = tested on: RPMI-8226 leukemia
MDA-N = tested on: MDA-N
SK-MEL-2 melanoma = tested on: SK-MEL-2 melanoma
NCI/ADR-RES ovarian = tested on: NCI/ADR-RES ovarian
OVCAR-8 ovarian = tested on: OVCAR-8 ovarian
RXF 393 renal = tested on: RXF 393 renal
MDA-MB-435 = tested on: MDA-MB-435
SN12C renal = tested on: SN12C renal
A498 renal = tested on: A498 renal
UACC-257 melanoma = tested on: UACC-257 melanoma
SK-MEL-28 melanoma = tested on: SK-MEL-28 melanoma
NCI-H226 lung = tested on: NCI-H226 lung
HL-60(TB) leukemia = tested on: HL-60(TB) leukemia
EKVX NSCLC = tested on: EKVX NSCLC
MALME-3M melanoma = tested on: MALME-3M melanoma
SK-OV-3 ovarian = tested on: SK-OV-3 ovarian
UACC-62 melanoma = tested on: UACC-62 melanoma
786-0 renal = tested on: 786-0 renal
LOX IMVI melanoma = tested on: LOX IMVI melanoma
DU-145 prostate = tested on: DU-145 prostate
NCI-H460 lung = tested on: NCI-H460 lung
OVCAR-3 ovarian = tested on: OVCAR-3 ovarian
U251 CNS = tested on: U251 CNS
NCI-H522 lung = tested on: NCI-H522 lung
NCI-H23 lung = tested on: NCI-H23 lung
SF-295 CNS = tested on: SF-295 CNS
SNB-19 CNS = tested on: SNB-19 CNS
SNB-75 CNS = tested on: SNB-75 CNS
OVCAR-4 ovarian = tested on: OVCAR-4 ovarian
KM12 colon = tested on: KM12 colon
HS 578T breast = tested on: HS 578T breast
CCRF-CEM leukemia = tested on: CCRF-CEM leukemia
CAKI-1 renal = tested on: CAKI-1 renal
OVCAR-5 ovarian = tested on: OVCAR-5 ovarian
MOLT-4 leukemia = tested on: MOLT-4 leukemia
MDA-MB-231 breast = tested on: MDA-MB-231 breast
A549 NSCLC = tested on: A549 NSCLC
COLO 205 colon = tested on: COLO 205 colon
M14 melanoma = tested on: M14 melanoma
HOP-62 NSCLC = tested on: HOP-62 NSCLC
SR leukemia = tested on: SR leukemia
PC-3 prostate = tested on: PC-3 prostate
TK-10 renal = tested on: TK-10 renal
IGROV1 ovarian = tested on: IGROV1 ovarian
SW-620 colon = tested on: SW-620 colon
UO-31 renal = tested on: UO-31 renal

Question: With `Nc1c2cc3ccc2nc2ccc(cc12)OCCOCCOCCOCCOCCOCCO3` as the compound, how does the TGI (HCT-15 colon) read?
Answer: > 10 µM

Question: And the TGI (ACHN renal)?
Answer: > 10 µM

Question: And the TGI (SF-539 CNS)?
Answer: > 10 µM

Question: And the TGI (BT-549 breast)?
Answer: > 10 µM

Question: What about the TGI (SF-268 CNS) of the same compound?
Answer: > 10 µM

Question: What about the TGI (MCF7 breast) of the same compound?
Answer: > 10 µM

Question: And the TGI (HCC-2998 colon)?
Answer: > 10 µM

Question: And the TGI (K-562 leukemia)?
Answer: > 10 µM

Question: What about the TGI (SK-MEL-5 melanoma) of the same compound?
Answer: > 10 µM

Question: What about the TGI (HCT-116 colon) of the same compound?
Answer: > 10 µM

Question: And the TGI (HT29 colon)?
Answer: > 10 µM

Question: What about the TGI (T-47D breast) of the same compound?
Answer: > 10 µM

Question: And the TGI (HOP-92 NSCLC)?
Answer: > 10 µM

Question: And the TGI (RPMI-8226 leukemia)?
Answer: > 10 µM

Question: What about the TGI (MDA-N) of the same compound?
Answer: > 10 µM

Question: And the TGI (SK-MEL-2 melanoma)?
Answer: > 10 µM

Question: And the TGI (NCI/ADR-RES ovarian)?
Answer: > 10 µM

Question: And the TGI (OVCAR-8 ovarian)?
Answer: > 10 µM

Question: And the TGI (RXF 393 renal)?
Answer: > 10 µM

Question: What about the TGI (MDA-MB-435) of the same compound?
Answer: > 10 µM

Question: And the TGI (SN12C renal)?
Answer: > 10 µM

Question: And the TGI (A498 renal)?
Answer: > 10 µM

Question: And the TGI (UACC-257 melanoma)?
Answer: > 10 µM

Question: And the TGI (SK-MEL-28 melanoma)?
Answer: > 10 µM

Question: What about the TGI (NCI-H226 lung) of the same compound?
Answer: > 10 µM

Question: And the TGI (HL-60(TB) leukemia)?
Answer: > 10 µM

Question: What about the TGI (EKVX NSCLC) of the same compound?
Answer: > 10 µM

Question: And the TGI (MALME-3M melanoma)?
Answer: > 10 µM

Question: And the TGI (SK-OV-3 ovarian)?
Answer: > 10 µM

Question: And the TGI (UACC-62 melanoma)?
Answer: > 10 µM

Question: What about the TGI (786-0 renal) of the same compound?
Answer: > 10 µM

Question: What about the TGI (LOX IMVI melanoma) of the same compound?
Answer: > 10 µM

Question: And the TGI (DU-145 prostate)?
Answer: > 10 µM

Question: What about the TGI (NCI-H460 lung) of the same compound?
Answer: > 10 µM

Question: And the TGI (OVCAR-3 ovarian)?
Answer: > 10 µM

Question: And the TGI (U251 CNS)?
Answer: > 10 µM

Question: And the TGI (NCI-H522 lung)?
Answer: > 10 µM

Question: What about the TGI (NCI-H23 lung) of the same compound?
Answer: > 10 µM

Question: What about the TGI (SF-295 CNS) of the same compound?
Answer: > 10 µM

Question: And the TGI (SNB-19 CNS)?
Answer: > 10 µM

Question: And the TGI (SNB-75 CNS)?
Answer: > 10 µM

Question: And the TGI (OVCAR-4 ovarian)?
Answer: > 10 µM

Question: What about the TGI (KM12 colon) of the same compound?
Answer: > 10 µM

Question: What about the TGI (HS 578T breast) of the same compound?
Answer: > 10 µM

Question: And the TGI (CCRF-CEM leukemia)?
Answer: > 10 µM

Question: What about the TGI (CAKI-1 renal) of the same compound?
Answer: > 10 µM

Question: What about the TGI (OVCAR-5 ovarian) of the same compound?
Answer: > 10 µM

Question: What about the TGI (MOLT-4 leukemia) of the same compound?
Answer: > 10 µM

Question: What about the TGI (MDA-MB-231 breast) of the same compound?
Answer: > 10 µM

Question: What about the TGI (A549 NSCLC) of the same compound?
Answer: > 10 µM

Question: What about the TGI (COLO 205 colon) of the same compound?
Answer: > 10 µM

Question: What about the TGI (M14 melanoma) of the same compound?
Answer: > 10 µM

Question: And the TGI (HOP-62 NSCLC)?
Answer: > 10 µM

Question: And the TGI (SR leukemia)?
Answer: > 10 µM

Question: And the TGI (PC-3 prostate)?
Answer: > 10 µM

Question: What about the TGI (TK-10 renal) of the same compound?
Answer: > 10 µM

Question: And the TGI (IGROV1 ovarian)?
Answer: > 10 µM

Question: What about the TGI (SW-620 colon) of the same compound?
Answer: > 10 µM

Question: What does the source list for `COc1ccc(/C=C/C(=O)Oc2ccccc2OC)cc1`?
Answer: TGI (HCT-15 colon): 37 µM; TGI (ACHN renal): > 59.4 µM; TGI (SF-539 CNS): > 100 µM; TGI (BT-549 breast): > 100 µM; TGI (SF-268 CNS): 4.71 µM; TGI (MCF7 breast): > 100 µM; TGI (HCC-2998 colon): 43.3 µM; TGI (K-562 leukemia): > 100 µM; TGI (SK-MEL-5 melanoma): > 100 µM; TGI (HCT-116 colon): 9.55 µM; TGI (HT29 colon): > 59 µM; TGI (T-47D breast): > 92.2 µM; TGI (HOP-92 NSCLC): 97.7 µM; TGI (RPMI-8226 leukemia): 5.22 µM; TGI (MDA-N): > 100 µM; TGI (SK-MEL-2 melanoma): > 95.3 µM; TGI (NCI/ADR-RES ovarian): > 68.3 µM; TGI (OVCAR-8 ovarian): > 71.9 µM; TGI (RXF 393 renal): 99.8 µM; TGI (MDA-MB-435): > 80.5 µM; TGI (SN12C renal): 58.2 µM; TGI (A498 renal): > 100 µM; TGI (UACC-257 melanoma): > 100 µM; TGI (SK-MEL-28 melanoma): > 100 µM; TGI (NCI-H226 lung): > 100 µM; TGI (HL-60(TB) leukemia): > 32.5 µM; TGI (EKVX NSCLC): > 100 µM; TGI (MALME-3M melanoma): > 100 µM; TGI (SK-OV-3 ovarian): > 100 µM; TGI (UACC-62 melanoma): 97.9 µM; TGI (786-0 renal): > 67 µM; TGI (LOX IMVI melanoma): > 70.7 µM; TGI (DU-145 prostate): > 100 µM; TGI (NCI-H460 lung): > 100 µM; TGI (OVCAR-3 ovarian): > 100 µM; TGI (U251 CNS): > 100 µM; TGI (NCI-H522 lung): > 72 µM; TGI (NCI-H23 lung): > 100 µM; TGI (SF-295 CNS): 10.7 µM; TGI (SNB-19 CNS): > 100 µM; TGI (SNB-75 CNS): > 74.1 µM; TGI (OVCAR-4 ovarian): > 60.7 µM; TGI (KM12 colon): 31.3 µM; TGI (HS 578T breast): > 89.6 µM; TGI (CCRF-CEM leukemia): 10.5 µM; TGI (CAKI-1 renal): > 91.1 µM; TGI (OVCAR-5 ovarian): 98.2 µM; TGI (MOLT-4 leukemia): 3.44 µM; TGI (MDA-MB-231 breast): 18 µM; TGI (A549 NSCLC): > 100 µM; TGI (UO-31 renal): > 100 µM; TGI (COLO 205 colon): 21.2 µM; TGI (M14 melanoma): > 100 µM; TGI (HOP-62 NSCLC): > 62.4 µM; TGI (SR leukemia): 32.3 µM; TGI (PC-3 prostate): > 100 µM; TGI (TK-10 renal): > 100 µM; TGI (IGROV1 ovarian): > 51.2 µM; TGI (SW-620 colon): > 100 µM
